Measured values: US20260048036A1, “CRYSTALLINE FORMS OF A GLUCOSYLCERAMIDE SYNTHASE INHIBITOR AND USES THEREOF” (ACELINK THERAPEUTICS, INC., priority 2022, published 2026)
Several values for one entry are separate records, joined by “and”; a condition that tells them apart may be missing. Identical values can stand only once. Like-named read-outs stand apart in the source and are kept apart here.

Experiments:
[1] = Hygroscopicity by DVS at 25° C.; format: physicochemical
[2] = target: T1, Glucosylceramide synthase (GCS) (Rattus norvegicus, UniProt Q9R0E0); assay: GCS enzymatic assay with L6 cell lysate; format: biochemical; settings: 0.1 μM, N = 1, N = 2
T1 construct: The MDCK, K-562, and L6 cell lines all endogenously express GCS enzyme; host or cells: L6 rat skeletal muscle cell lysate
T1 sequence (Q9R0E0 1-394): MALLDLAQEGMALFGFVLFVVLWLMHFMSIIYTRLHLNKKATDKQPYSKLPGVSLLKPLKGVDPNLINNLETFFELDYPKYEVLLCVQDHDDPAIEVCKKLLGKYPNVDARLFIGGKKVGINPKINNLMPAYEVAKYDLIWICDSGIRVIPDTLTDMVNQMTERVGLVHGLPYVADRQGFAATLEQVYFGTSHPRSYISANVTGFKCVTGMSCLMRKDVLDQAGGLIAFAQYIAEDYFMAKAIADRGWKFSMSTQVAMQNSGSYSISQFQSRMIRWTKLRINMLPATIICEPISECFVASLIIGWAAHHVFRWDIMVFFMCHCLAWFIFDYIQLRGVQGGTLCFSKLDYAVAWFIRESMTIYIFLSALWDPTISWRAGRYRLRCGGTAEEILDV
Source text: In this study, the inventors developed a reliable method to monitor GCS catalytic activity using the fluorescent substrate, C6-NBD-ceramide. The reaction product, C6-NBD-glucosylceramide, could then be detected and quantified by LC-MS/MS. The inventors used this method to test and validate the effect of various GCS inhibitors on GCS enzyme activity from different species.
The MDCK, K-562, and L6 cell lines all endogenously express GCS enzyme and were used to test the effect of various GCS inhibitors on enzyme originating from different species. The GCS enzyme activity was detected by using the fluorescent substrate, C6-NBD-ceramide, and monitoring the formation of the fluorescent reaction product, C6-NBD-glucosylceramide. First, the inventors used cell lysate derived from a canine kidney cell line (MDCK, ATCC Cat #CCL-34™) as the source of GCS and tested the inhibitory activity of several control and test compounds. The inventors then used the human leukemia K-562 cell line (ATCC Cat #[…]) to test the effect of these GCS inhibitors on intact living cells. Finally, a cell lysate derived from a rat skeletal muscle cell line, L6 (ATCC Cat #[…]), was used to test the effect of these GCS inhibitors on rodent GCS enzyme.
GCS activity was evaluated using a GCS enzyme assay derived from MDCK or L6 cell lysates.
MDCK or L6 cell lysates were prepared using M-PER in the presence of a protease inhibitor cocktail. Each 100 mm dish (100% confluent) was lysed with 250 μl of M-PER containing protease inhibitors. Protein concentration was determined using Pierce BCA protein assay kit.
Sixty micrograms of MDCK lysate was incubated with various concentrations of compounds (0.00001 μM-1 μM) in 100 mM Tris buffer (pH 7.5) containing 10 mM MgCl2, 1 mM dithiothreitol, 1 mM EGTA, 2 mM NAD, 100 μM UDP-glucose, 10 μM C6-NBD-ceramide with 35 μM dioleoylphosphatidylcholine/5 μM sulfatide in a final reaction volume of 100 μl at 37° C. for 1 hour. The final concentration of DMSO was 0.1% in both compound treated and DMSO only treated samples. Each individual reaction was terminated with 11 volumes of methanol:acetonitrile (6:5; containing 200 ng/ml Tolbutamide as internal control). After sufficient mixing, reactions were centrifuged at 2000 rpm for 10 mins, supernatant was injected into the LC-MS/MS for analysis.
For the assay with L6 cell lysate, different amounts of L6 cell lysate were used.
The quantitative analysis of C6-NBD-glucosylceramide was performed on a Shimadzu ultra-fast liquid chromatography coupled with API 4000 mass spectrometer. Analyst 1.5 software packages were used to control the LC-MS/MS system, as well as for data acquisition and processing.
The C6-NBD-glucosylceramide reading was normalized first by dividing the peak area of C6-NBD-glucosylceramide with the peak area of the internal standard, and then the amount was calculated according to the standard curve generated in the same assay run. For the cell based assay results, the amount of C6-NBD-glucosylceramide was also normalized by the protein concentration of the cell samples.
To confirm the inhibitory activity of test compounds on GCS from different species, cells from rat were used. First, the presence of GCS activity was verified using various amounts of L6 cell lysate (FIG. 34, Table 26).

With O=C(N[C@H](CN1CCCC1)[C@H](O)c1ccc(OC2CC2)c(Cl)c1)/C(=N/O)c1ccc2cc(Cl)ccc2c1 [Crystalline Form A of Compound 1] the “XRPD after DVS test” value [1] was “No form change”, the “hygroscopicity (DVS)” value [1] was “slightly hygroscopic” and the “Desorp. (DVS)” value ([1]; 0% RH) was 0.02%. For the same compound, the “Sorp. (water uptake by DVS)” value ([1]; 0% RH) was 0.02%, the “Desorp. (DVS)” value ([1]; 10% RH) was 0.04% and the “Sorp. (water uptake by DVS)” value ([1]; 10% RH) was 0.03%. For the same compound, the “Desorp. (DVS)” value ([1]; 20% RH) was 0.05%, the “Sorp. (water uptake by DVS)” value ([1]; 20% RH) was 0.04% and the “Desorp. (DVS)” value ([1]; 30% RH) was 0.06%. The “Sorp. (water uptake by DVS)” value ([1]; 30% RH) was 0.05%, the “Desorp. (DVS)” value ([1]; 40% RH) was 0.09% and the “Sorp. (water uptake by DVS)” value ([1]; 40% RH) was 0.06%. The “Sorp. (water uptake by DVS)” value ([1]; 50% RH) was 0.09%, the “Sorp. (water uptake by DVS)” value ([1]; 60% RH) was 0.12% and the “Sorp. (water uptake by DVS)” value ([1]; 70% RH) was 0.14%. The “Sorp. (water uptake by DVS)” value ([1]; 80% RH) was 0.22%, the “Sorp. (water uptake by DVS)” value ([1]; 90% RH) was 0.39% and the “water uptake increased from 40% RH to 90% RH” value ([1]; DVS) was “about 0.33%”. The “XRPD after DVS test” value ([1]; listed as Free form Crystalline Form A of Compound 1) was “No form change”, the “XRPD after DVS test” value ([1]; listed as free form Crystalline Form A of Compound 1) was “no form change” and the “C6-NBD-Ceramide (Normalized to internal control)” value ([2]; 30 μg L6 lysate/reaction) was 6.69 and 6.31. The “C6-NBD-Glucosylceramide Concentration” value ([2]; 30 μg L6 lysate/reaction) was 9.73 nM and 10.5 nM, the Inhibition ([2]; 30 μg L6 lysate/reaction) was 98.57% and 98.45% and the inhibition at 0.1 µM ([2]; 30 μg L6 lysate/reaction) was greater than 98%. For the same compound, the “C6-NBD-Ceramide (Normalized to internal control)” value ([2]; 60 μg L6 lysate/reaction) was 5.87 and 6.17, the “C6-NBD-Glucosylceramide Concentration” value ([2]; 60 μg L6 lysate/reaction) was 22.5 nM and 26.3 nM and the Inhibition ([2]; 60 μg L6 lysate/reaction) was 97.64%. The inhibition at 0.1 µM ([2]; 60 μg L6 lysate/reaction) was 98%, the “C6-NBD-Ceramide (Normalized to internal control)” value ([2]; 120 μg L6 lysate/reaction) was 6.09 and 6.11 and the “C6-NBD-Glucosylceramide Concentration” value ([2]; 120 μg L6 lysate/reaction) was 45.8 nM and 44.7 nM. The Inhibition ([2]; 120 μg L6 lysate/reaction) was 96.74%, the inhibition at 0.1 µM ([2]; 120 μg L6 lysate/reaction) was 96.7% and the “C6-NBD-Ceramide (Normalized to internal control)” value ([2]; 180 μg L6 lysate/reaction) was 5.15 and 5.12. The “C6-NBD-Glucosylceramide Concentration” value ([2]; 180 μg L6 lysate/reaction) was 54.7 nM and 59.0 nM, the Inhibition ([2]; 180 μg L6 lysate/reaction) was 95.55% and the inhibition at 0.1 µM ([2]; 180 μg L6 lysate/reaction) was 95.9%. The “C6-NBD-Ceramide (Normalized to internal control)” value ([2]; 240 μg L6 lysate/reaction) was 5.72 and 5.61, the “C6-NBD-Glucosylceramide Concentration” value ([2]; 240 μg L6 lysate/reaction) was 76.9 nM and 78.2 nM and the Inhibition ([2]; 240 μg L6 lysate/reaction) was 93.51%. The inhibition at 0.1 µM ([2]; 240 μg L6 lysate/reaction) was 93.6%.
